From patent publication US5723491A, “Fungicidal composition and method of controlling fungus infestation” (Novartis Corporation, priority 1994, dated 1998)
Several values for one entry are separate records, joined by “and”; a condition that tells them apart may be missing. Equal values may be shown once. Read-outs that look alike come from different tables or passages of the source.

Tests used:
[1] = Degradation behaviour in moderately heavy soil (silt/loam) under laboratory conditions; conditions: for degradation equation Ct, pre-exponential factor: first-order fit; for DT-50 (50% degradation) / DT-90 (90% degradation): from degradation curve FIG. 1
Protocol: Degradation Behaviour of Racemic Metalaxyl and R-metalaxyl in Moderately Heavy Soil
Two groups of 8 samples each of biologically active soil (silt/loam; loam: 13.9%; silt: 54.3%; sand: 31.8%; organic carbon: 2.1%; pH 7.3; biomass: 65.1 mg microbial carbon per 100 g soil; origin: Les Evouettes, Valais, Switzerland) are treated in parallel with racemic metalaxyl or R-metalaxyl, respectively, in each case in acetonic solution. The rate of application is 0.5 mg/kg of soil sample, which corresponds to a rate of application of 0.5 kg/hectare. The results are evaluated in duplicate after 0, 7, 14 and 21 days.

[2] = tested on: metalaxyl-sensitive strain of Plasmopara viticola; assay: Foliar spray on vine plantlets infected with Plasmopara viticola (two-leaf and three-leaf stage sprayings); type: in vivo
Protocol: Vine plantlets cv. "Gutedel" are grown under greenhouse conditions using one plant per pot (.O slashed.=6 cm) and sprayed with a spray broth prepared from an emulsion concentrate, either in the two-leaf stage or in the three-leaf stage. The following concentrations of active ingredient are used per batch of 4 plants: 200; 60; 20; 6; 2; 0.6; 0.2; 0.06 mg of a.i./liter. This dilution series is prepared in demineralized water immediately prior to application as a foliar spray. To exclude a gas-phase effect of the a.i. in the vicinity, all plants are separated from each other on the side using translucent plastic foils and kept in the dark for one day at 20°-22° C. and a relative humidity of approximately 100%.
Then, the entire leaf surface area of the plants is uniformly sprayed to drip point with a freshly prepared sporangia suspension (120 000/ml) of a metalaxyl-sensitive strain of Plasmopara viticola. The plants are then kept for 7 days under a 16 hour photoperiod with artificial daylight at 20°-22° C. and a relative humidity of approximately 100%. This is followed by evaluation of the infestation, separating three-leaf and two-leaf stage sprayings. The tables show in each case the average of 4 parallel sprayings.

[3] = 20° C., cited from earlier work
[4] = Degradation behaviour in sandy soil under laboratory conditions; set-up: degradation equation Ct, rate constant in exponent: unit: 1/day; conditions: sand; for degradation equation Ct, pre-exponential factor / degradation equation Ct, rate constant in exponent: first-order fit; for degradation equation Ct, rate constant in exponent: e^(-k*t); for DT-50 (50% degradation) / DT-90 (90% degradation): from degradation curve FIG. 2
Protocol: Degradation Behaviour of Racemic Metalaxyl and R-metalaxyl in Sandy Soil
Two groups of 16 samples each of biologically active soil (sandy soil; loam: 5.1%; silt: 11.4%; sand: 83.5%; organic carbon: 1.6%; pH 4; biomass: 51 mg microbial carbon/100 g soil; origin: Collombey, Valais, Switzerland)are treated in parallel with racemic metalaxyl or R-metalaxyl, respectively, in each case in acetonic solution. The rate of application is 0.5 mg/kg of soil sample, which corresponds to a rate of application of 0.5 kg/hectare. The results are evaluated in duplicate after 0, 1, 3, 7, 9, 15, 21 and 29 days.

Phytophthora palmivora = conditions: S-enantiomer versus R-enantiomer of metalaxyl; cited from earlier work
[5] = day 7, mean of duplicate, 10080 min
[6] = day 7, single sample, 10080 min
[7] = day 14, mean of duplicate, 20160 min
[8] = day 14, single sample, 20160 min
[9] = day 21, mean of duplicate, 30240 min
[10] = day 21, single sample, 30240 min
[11] = three-leaf stage, 0.06 mg of a.i./liter, untreated control 92
[12] = three-leaf stage, 0.2 mg of a.i./liter, untreated control 92
[13] = three-leaf stage, 0.6 mg of a.i./liter, untreated control 92
[14] = three-leaf stage, 2 mg of a.i./liter, untreated control 92
[15] = three-leaf stage, 6 mg of a.i./liter, untreated control 92
[16] = three-leaf stage, 20 mg of a.i./liter, untreated control 92
[17] = three-leaf stage, 60 mg of a.i./liter, untreated control 92
[18] = three-leaf stage, 200 mg of a.i./liter, untreated control 92
[19] = two-leaf stage, 0.06 mg of a.i./liter, untreated control 96
[20] = two-leaf stage, 0.2 mg of a.i./liter, untreated control 96
[21] = two-leaf stage, 0.6 mg of a.i./liter, untreated control 96
[22] = two-leaf stage, 2 mg of a.i./liter, untreated control 96
[23] = two-leaf stage, 6 mg of a.i./liter, untreated control 96
[24] = two-leaf stage, 20 mg of a.i./liter, untreated control 96
[25] = two-leaf stage, 60 mg of a.i./liter, untreated control 96
[26] = two-leaf stage, 200 mg of a.i./liter, untreated control 96
[27] = day 1, mean of duplicate, 1440 min
[28] = day 3, mean of duplicate, 4320 min
[29] = day 9, mean of duplicate, 12960 min
[30] = day 9, single sample, 12960 min
[31] = day 15, mean of duplicate, 21600 min
[32] = day 15, single sample, 21600 min
[33] = day 29, mean of duplicate, 41760 min
[34] = day 29, single sample, 41760 min

COCC(=O)N(c1c(C)cccc1C)C(C)C(=O)OC (racemic) [racemic metalaxyl, N-(2,6-dimethylphenyl)-N-(methoxyacetyl)-DL-alanine methyl ester]
Compound remaining in soil (% of applied) ([1]; day 0, mean of duplicate): 90.39 % of applied
Compound remaining in soil (% of applied) ([1]; day 0, single sample): 90.41 % of applied and 90.36 % of applied
Compound remaining in soil (% of applied) [1, 5]: 46.23 % of applied
Compound remaining in soil (% of applied) [1, 6]: 47.28 % of applied and 45.17 % of applied
Compound remaining in soil (% of applied) [1, 7]: 35.71 % of applied
Compound remaining in soil (% of applied) [1, 8]: 35.88 % of applied and 35.54 % of applied
Compound remaining in soil (% of applied) [1, 9]: 29.20 % of applied
Compound remaining in soil (% of applied) [1, 10]: 29.34 % of applied and 29.06 % of applied
degradation equation Ct, pre-exponential factor [1]: 86.66
DT-50 (50% degradation) [1]: 10.8 days
DT-90 (90% degradation) [1]: 35.7 days
Foliar infestation [2, 11]: 92%
Foliar infestation [2, 12]: 90%
Foliar infestation [2, 13]: 96%
Foliar infestation [2, 14]: 80%
activity ([2]; three-leaf stage, 6 mg of a.i./liter (or less)): virtually no activity
Foliar infestation [2, 15]: 85%
Foliar infestation [2, 16]: 27%
activity ([2]; three-leaf stage, 20 mg/liter): a more clear-cut activity is only discernible
Foliar infestation [2, 17]: 0%
Foliar infestation [2, 18]: 0%
Foliar infestation [2, 19]: 96%
Foliar infestation [2, 20]: 97%
Foliar infestation [2, 21]: 100%
Foliar infestation [2, 22]: 87%
Foliar infestation [2, 23]: 76%
Foliar infestation [2, 24]: 38%
Foliar infestation [2, 25]: 0%
Foliar infestation [2, 26]: 0%
effect for practical purposes ([2]; two-leaf stage, below 20 mg of a.i./liter): without effect for practical purposes
action against foliar infestation ([2]; two-leaf stage, below 60 mg of a.i./liter): does not result in a clear-cut action against foliar infestation
DT-50 (hydrolytic half-life) ([3]; pH1): > 200 days
DT-50 (hydrolytic half-life) ([3]; pH9): 115 days
Rate of degradation (% of applied), mean ([4]; day 0, mean of duplicate): 97.78 % of applied
Rate of degradation (% of applied) ([4]; day 0, single sample): 98.00 % of applied and 97.56 % of applied
Rate of degradation (% of applied), mean [4, 27]: 87.82 % of applied
Rate of degradation (% of applied) ([4]; day 1, single sample, 1440 min): 87.75 % of applied and 87.88 % of applied
Rate of degradation (% of applied), mean [4, 28]: 80.01 % of applied
Rate of degradation (% of applied) ([4]; day 3, single sample, 4320 min): 80.32 % of applied and 79.69 % of applied
Rate of degradation (% of applied), mean [4, 5]: 65.01 % of applied
Rate of degradation (% of applied) [4, 6]: 65.41 % of applied and 64.60 % of applied
Rate of degradation (% of applied), mean [4, 29]: 56.26 % of applied
Rate of degradation (% of applied) [4, 30]: 55.84 % of applied and 56.68 % of applied
Rate of degradation (% of applied), mean [4, 31]: 42.54 % of applied
Rate of degradation (% of applied) [4, 32]: 43.49 % of applied and 41.58 % of applied
Rate of degradation (% of applied), mean [4, 9]: 31.99 % of applied
Rate of degradation (% of applied) [4, 10]: 30.77 % of applied and 33.21 % of applied
Rate of degradation (% of applied), mean [4, 33]: 28.49 % of applied
Rate of degradation (% of applied) [4, 34]: 28.70 % of applied and 28.28 % of applied
degradation equation Ct, pre-exponential factor [4]: 93.67
degradation equation Ct, rate constant in exponent [4]: 0.05006
DT-50 (50% degradation) [4]: 13.9 days
DT-90 (90% degradation) [4]: 46.0 days

COCC(=O)N(c1c(C)cccc1C)[C@H](C)C(=O)OC [R-metalaxyl]
Compound remaining in soil (% of applied) ([1]; day 0, mean of duplicate): 96.28 % of applied
Compound remaining in soil (% of applied) ([1]; day 0, single sample): 93.61 % of applied and 98.94 % of applied
Compound remaining in soil (% of applied) [1, 5]: 25.23 % of applied
Compound remaining in soil (% of applied) [1, 6]: 24.74 % of applied and 25.7 % of applied
Compound remaining in soil (% of applied) [1, 7]: 9.85 % of applied
Compound remaining in soil (% of applied) [1, 8]: 9.07 % of applied and 10.62 % of applied
Compound remaining in soil (% of applied) [1, 9]: 7.69 % of applied
Compound remaining in soil (% of applied) [1, 10]: 7.57 % of applied and 7.82 % of applied
degradation equation Ct, pre-exponential factor [1]: 95.9
DT-50 (50% degradation) [1]: 3.9 days
DT-90 (90% degradation) [1]: 13.0 days
Foliar infestation [2, 11]: 93%
Foliar infestation [2, 12]: 78%
Foliar infestation [2, 13]: 0%
Foliar infestation [2, 14]: 0%
Foliar infestation [2, 15]: 0%
Foliar infestation [2, 16]: 0%
Foliar infestation [2, 17]: 0%
Foliar infestation [2, 18]: 0%
activity relative to racemic metalaxyl ([2]; three-leaf stage, up to 0.6 mg of a.i./liter): approximately 100 times
Foliar infestation [2, 19]: 92%
Foliar infestation [2, 20]: 97%
Foliar infestation [2, 21]: 78%
Foliar infestation [2, 22]: 4%
Foliar infestation [2, 23]: 0%
Foliar infestation [2, 24]: 0%
Foliar infestation [2, 25]: 0%
Foliar infestation [2, 26]: 0%
activity relative to racemic metalaxyl ([2]; two-leaf stage, up to dilutions of 2 mg of a.i./liter): up to 30 times
Rate of degradation (% of applied), mean ([4]; day 0, mean of duplicate): 100.02 % of applied
Rate of degradation (% of applied) ([4]; day 0, single sample): 100.32 % of applied and 99.72 % of applied
Rate of degradation (% of applied), mean [4, 27]: 89.64 % of applied
Rate of degradation (% of applied) ([4]; day 1, single sample, 1440 min): 89.16 % of applied and 90.13 % of applied
Rate of degradation (% of applied), mean [4, 28]: 75.48 % of applied
Rate of degradation (% of applied) ([4]; day 3, single sample, 4320 min): 76.96 % of applied and 74.01 % of applied
Rate of degradation (% of applied), mean [4, 5]: 52.59 % of applied
Rate of degradation (% of applied) [4, 6]: 52.59 % of applied
Rate of degradation (% of applied), mean [4, 29]: 46.84 % of applied
Rate of degradation (% of applied) [4, 30]: 47.22 % of applied and 46.45 % of applied
Rate of degradation (% of applied), mean [4, 31]: 27.33 % of applied
Rate of degradation (% of applied) [4, 32]: 24.77 % of applied and 29.89 % of applied
Rate of degradation (% of applied), mean [4, 9]: 17.09 % of applied
Rate of degradation (% of applied) [4, 10]: 17.12 % of applied and 17.05 % of applied
Rate of degradation (% of applied), mean [4, 33]: 8.72 % of applied
Rate of degradation (% of applied) [4, 34]: 8.82 % of applied and 8.62 % of applied
degradation equation Ct, pre-exponential factor [4]: 98.54
degradation equation Ct, rate constant in exponent [4]: 0.08548
DT-50 (50% degradation) [4]: 8.1 days
DT-90 (90% degradation) [4]: 26.9 days

COCC(=O)N(c1c(C)cccc1C)[C@@H](C)C(=O)OC [S-enantiomer of metalaxyl]
ED50 inhibitory value in nucleic acid synthesis relative to R-enantiomer (times more unfavorable) (Phytophthora palmivora): approximately fifty
